Assay results reported in patent publication US11046699B2, “Pyrazolo-pyrimidin-amino-cycloalkyl compounds and their therapeutic uses” (RAPT THERAPEUTICS, INC., priority 2018, dated 2021).
Structures can show the parent of a compound that is named as a salt. Where two headings read alike, the source gives them in different places.

Molecular target: GCN2 (Homo sapiens, UniProt Q9P2K8)
Test: GCN2 enzymatic endpoint assay: phosphorylation of GFP-eIF2α measured by TR-FRET (Lanthascreen)
Assay type: biochemical
In short: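 Reaction started with 2 μM ATP and 80 nM GFP-labelled eIF2α substrate at room temperature, stopped with EDTA after 90 minutes. Phospho-eIF2α detected by terbium-labelled antibody TR-FRET; activity taken as 520 nm (fluorescein) to 495 nm (terbium) emission ratio.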

[1] = GCN2 biochemical IC50, 4 nM GCN2, 2 μM ATP, 80 nM GFP-eIF2α, 90 min RT, read-out: GCN2 activity
[2] = tested as described in Example 77, compound and/or hydrochloride, dihydrochloride or trifluoroacetic acid salt, read-out: IC 50 Activity

Chain of GCN2 (Q9P2K8 whole entry): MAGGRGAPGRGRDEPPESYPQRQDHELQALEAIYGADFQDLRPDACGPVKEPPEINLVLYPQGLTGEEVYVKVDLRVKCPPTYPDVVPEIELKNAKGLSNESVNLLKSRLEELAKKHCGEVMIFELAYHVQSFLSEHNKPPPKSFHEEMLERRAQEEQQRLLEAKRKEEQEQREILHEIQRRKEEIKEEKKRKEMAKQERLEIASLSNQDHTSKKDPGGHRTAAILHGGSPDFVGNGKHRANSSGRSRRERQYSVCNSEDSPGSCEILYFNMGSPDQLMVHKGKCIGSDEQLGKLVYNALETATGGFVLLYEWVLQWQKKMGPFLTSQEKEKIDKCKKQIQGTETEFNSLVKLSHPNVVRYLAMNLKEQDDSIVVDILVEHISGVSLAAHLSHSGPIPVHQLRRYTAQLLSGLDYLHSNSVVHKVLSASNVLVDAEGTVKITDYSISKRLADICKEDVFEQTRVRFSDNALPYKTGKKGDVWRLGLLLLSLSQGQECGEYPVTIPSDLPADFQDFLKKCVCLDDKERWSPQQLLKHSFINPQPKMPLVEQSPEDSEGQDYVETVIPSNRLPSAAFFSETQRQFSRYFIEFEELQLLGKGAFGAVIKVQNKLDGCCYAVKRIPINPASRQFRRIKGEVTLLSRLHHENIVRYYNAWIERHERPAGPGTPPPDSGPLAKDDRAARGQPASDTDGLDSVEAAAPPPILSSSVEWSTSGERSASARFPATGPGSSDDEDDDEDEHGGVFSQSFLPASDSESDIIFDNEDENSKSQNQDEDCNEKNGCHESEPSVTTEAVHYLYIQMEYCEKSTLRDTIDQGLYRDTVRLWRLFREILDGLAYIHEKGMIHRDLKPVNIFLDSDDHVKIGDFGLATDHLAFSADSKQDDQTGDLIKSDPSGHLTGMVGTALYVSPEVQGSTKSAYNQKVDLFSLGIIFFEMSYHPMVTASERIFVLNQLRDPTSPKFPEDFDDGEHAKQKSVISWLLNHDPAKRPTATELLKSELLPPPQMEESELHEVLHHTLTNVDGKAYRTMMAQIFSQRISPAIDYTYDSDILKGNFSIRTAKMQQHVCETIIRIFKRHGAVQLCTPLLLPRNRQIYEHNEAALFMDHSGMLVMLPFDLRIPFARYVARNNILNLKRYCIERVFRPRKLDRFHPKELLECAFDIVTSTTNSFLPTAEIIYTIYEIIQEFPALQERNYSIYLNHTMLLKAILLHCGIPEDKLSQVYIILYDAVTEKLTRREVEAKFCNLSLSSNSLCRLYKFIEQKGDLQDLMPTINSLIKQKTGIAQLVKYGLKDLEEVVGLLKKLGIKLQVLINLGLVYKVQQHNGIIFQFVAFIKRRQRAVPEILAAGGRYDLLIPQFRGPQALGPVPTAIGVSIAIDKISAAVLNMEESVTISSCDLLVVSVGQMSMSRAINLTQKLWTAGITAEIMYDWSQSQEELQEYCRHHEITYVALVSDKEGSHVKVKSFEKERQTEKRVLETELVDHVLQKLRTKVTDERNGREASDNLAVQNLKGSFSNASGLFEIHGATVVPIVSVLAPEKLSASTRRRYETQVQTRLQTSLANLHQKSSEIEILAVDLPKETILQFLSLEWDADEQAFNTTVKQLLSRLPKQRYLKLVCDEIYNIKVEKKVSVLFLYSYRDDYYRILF

Compound	IC50 [1]	IC50 [2]
O=C1NCC[C@]12CC[C@@H](Nc1ncc3c(Br)nn(-c4cc(F)c5ncccc5c4)c3n1)C2 [Example 48, (5S,7R)-7-((3-bromo-1-(8-fluoroquinolin-6-yl)-1H-pyrazolo[3,4-d]pyrimidin-6-yl)amino)-2-azaspiro[4.4]nonan-1-one hydrochloride]	25 to 200 nM	–
CNC(=O)[C@]1(C)CC[C@@H](Nc2ncc3c(Br)nn(-c4cc(Cl)cc(C(C)O)c4)c3n2)C1 (stereo partly shown)	–	< 25 nM
O=C(N[C@H]1CCOC1)[C@@H]1CC[C@@H](Nc2ncc3c(Br)nn(-c4ccc5ncccc5c4)c3n2)C1 [(1R,3R)-3-((3-bromo-1-(quinolin-6-yl)-1H-pyrazolo[3,4-d]pyrimidin-6-yl)amino)-N-((S)-tetrahydrofuran-3-yl)cyclopentane-1-carboxamide]	–	25 to 200 nM
CNC(=O)[C@]1(CC(F)(F)F)CC[C@@H](Nc2ncc3c(Br)nn(-c4cc(F)c5ncccc5c4)c3n2)C1 [(1R,3R)-3-[[3-bromo-1-(8-fluoro-6-quinolyl)pyrazolo[3,4-d]pyrimidin-6-yl]amino]-N-methyl-1-(2,2,2-trifluoroethyl)cyclopentane-carboxamide]	–	< 25 nM
CN[C@]1(C)CC[C@@H](Nc2ncc3c(Br)nn(-c4ccc(-c5nnc(C)s5)cc4)c3n2)C1	–	25 to 200 nM
CNC(=O)[C@@]1(CC(F)F)CC[C@@H](Nc2ncc3c(Br)nn(-c4ccc(-c5nnc(C)o5)cc4)c3n2)C1 [(1S,3R)-3-[[3-bromo-1-[4-(5-methyl-1,3,4-oxadiazol-2-yl)phenyl]pyrazolo[3,4-d]pyrimidin-6-yl]amino]-1-(2,2-difluoroethyl)-N-methyl-cyclopentanecarboxamide]	–	25 to 200 nM
CCN(C)C(=O)[C@]1(C)CC[C@@H](Nc2ncc3c(Br)nn(-c4cc(F)c5ncccc5c4)c3n2)C1 [(1R,3R)-3-[[3-bromo-1-(8-fluoro-6-quinolyl)pyrazolo[3,4-d]pyrimidin-6-yl]amino]-N-ethyl-N,1-dimethyl-cyclopentanecarboxamide]	–	< 25 nM
CNC(=O)[C@@H]1CC[C@@H](Nc2ncc3c(Br)nn(-c4cc(C(F)F)c5ncccc5c4)c3n2)C1 [(1R,3R)-3-((3-bromo-1-(8-(difluoromethyl)quinolin-6-yl)-1H-pyrazolo[3,4-d]pyrimidin-6-yl)amino)-N-methylcyclopentane-1-carboxamide]	–	25 to 200 nM
CNC(=O)C1(CC(F)(F)F)CC[C@@H](Nc2ncc3c(Br)nn(-c4ccc(-c5nnc(C)s5)c(CCC#N)c4)c3n2)C1 (stereo partly shown)	–	25 to 200 nM
CN(C)CCNC(=O)[C@@H]1CC[C@@H](Nc2ncc3c(Br)nn(-c4ccc5ncccc5c4)c3n2)C1 [(1R,3R)-3-((3-bromo-1-(quinolin-6-yl)-1H-pyrazolo[3,4-d]pyrimidin-6-yl)amino)-N-(2-(dimethylamino)ethyl)cyclopentane-1-carboxamide]	–	25 to 200 nM
CNC(=O)[C@]1(C)CC[C@@H](Nc2ncc3c(Br)nn(-c4cc(OCCO)c5c(c4)OCC(=O)N5C)c3n2)C1 [(1R,3R)-3-[[3-bromo-1-[5-(2-hydroxyethoxy)-4-methyl-3-oxo-1,4-benzoxazin-7-yl]pyrazolo [3,4-d]pyrimidin-6-yl]amino]-N,1-dimethyl-cyclopentanecarboxamide]	–	< 25 nM
C[C@H]1CN(C)C(=O)CN1C(=O)[C@@H]1CC[C@@H](Nc2ncc3c(Br)nn(-c4cc(F)c5ncccc5c4)c3n2)C1 [(S)-4-((1R,3R)-3-((3-bromo-1-(8-fluoroquinolin-6-yl)-1H-pyrazolo[3,4-d]pyrimidin-6-yl)amino)cyclopentane-1-carbonyl)-1,5-dimethyl-piperazin-2-one]	–	25 to 200 nM
CNC(=O)[C@]1(C)CC[C@@H](Nc2ncc3c(Br)nn(-c4ccc5ncnn5c4)c3n2)C1 [(1R,3R)-3-[[3-bromo-1-([1,2,4]triazolo[1,5-a]pyridin-6-yl)pyrazolo[3,4-d]pyrimidin-6-yl]amino]-N,1-dimethyl-cyclopentane-carboxamide]	–	25 to 200 nM
CNC(=O)[C@]1(C)CC[C@@H](Nc2ncc3c(Br)nn(-c4ccc(-c5nnc(C)s5)c(CC(C#N)CO)c4)c3n2)C1 (stereo partly drawn) [(1R,3R)-3-[[3-bromo-1-[3-(2-cyano-3-hydroxy-propyl)-4-(5-methyl-1,3,4-thiadiazol-2-yl)phenyl]pyrazolo[3,4-d]pyrimidin-6-yl]amino]-N,1-dimethyl-cyclopentanecarboxamide]	–	< 25 nM
COc1cc(-n2nc(Br)c3cnc(N[C@@H]4CC[C@@H](C(=O)NCCS(C)(=O)=O)C4)nc32)ccn1	–	500 to 1000 nM
CC(C)N(CC(N)=O)C(=O)[C@@H]1CC[C@@H](Nc2ncc3c(Br)nn(-c4cc(F)c5ncccc5c4)c3n2)C1 [(1R,3R)-N-(2-amino-2-oxoethyl)-3-((3-bromo-1-(8-fluoroquinolin-6-yl)-1H-pyrazolo[3,4-d]pyrimidin-6-yl)amino)-N-isopropylcyclopentane-1-carboxamide]	–	25 to 200 nM
CNC(=O)[C@]1(C)CC[C@@H](Nc2ncc3c(Br)nn(-c4cccc(CCS(C)(=O)=O)c4)c3n2)C1 [(1R,3R)-3-[[3-bromo-1-[3-(2-methyl-sulfonylethyl)phenyl]pyrazolo[3,4-d]pyrimidin-6-yl]amino]-N,1-dimethyl-cyclopentanecarboxamide]	–	25 to 200 nM
CNC(=O)C1(C#N)CC[C@@H](Nc2ncc3c(Br)nn(-c4cc(Cl)cc([C@H](C)N)c4)c3n2)C1 (stereo partly drawn) [(3R)-3-[[1-[3-[(1S)-1-aminoethyl]-5-chloro-phenyl]-3-bromo-pyrazolo[3,4-d]pyrimidin-6-yl]amino]-1-cyano-N-methyl-cyclo-pentanecarboxamide; 2,2,2-trifluoroacetic acid]	–	25 to 200 nM
CNC(=O)[C@@H]1CC[C@@H](Nc2ncc3c(Br)nn(-c4cnc5c(C#N)cccc5c4)c3n2)C1 [(1R,3R)-3-[[3-bromo-1-(8-cyano-3-quinolyl)pyrazolo[3,4-d]pyrimidin-6-yl]amino]-N-methyl-cyclopentanecarboxamide]	–	25 to 200 nM
C[C@]1(C(=O)NCCO)CC[C@@H](Nc2ncc3c(Br)nn(-c4cc(F)c5ncccc5c4)c3n2)C1 [(1S,3R)-3-[[3-bromo-1-(8-fluoro-6-quinolyl)pyrazolo[3,4-d]pyrimidin-6-yl]amino]-N-(2-hydroxyethyl)-1-methyl-cyclopentane-carboxamide]	–	25 to 200 nM
CC(O)C(=O)N1CCN(C(=O)[C@@H]2CC[C@@H](Nc3ncc4c(Br)nn(-c5ccc6ncccc6c5)c4n3)C2)CC1 (stereo partly drawn) [1-(4-((1R,3R)-3-((3-bromo-1-(quinolin-6-yl)-1H-pyrazolo[3,4-d]pyrimidin-6-yl)amino)cyclopentane-1-carbonyl)piperazin-1-yl)-2-hydroxypropan-1-one]	–	25 to 200 nM

Other lines, results leading:

IC50 [1]	IC50 [2]	Compound
500 to 1000 nM	–	CN1CCN(C(=O)[C@@H]2CC[C@@H](Nc3ncc4c(Br)nn(-c5ccc(-c6cccnc6)c(F)c5)c4n3)C2)CC1=O [Example 27, 4-((1R,3R)-3-((3-bromo-1-(3-fluoro-4-(pyridin-3-yl)phenyl)-1H-pyrazolo[3,4-d]pyrimidin-6-yl)amino)cyclopentane-1-carbonyl)-1-methylpiperazin-2-one]
–	25 to 200 nM	CNC(=O)[C@]1(CC(F)F)CC[C@@H](Nc2ncc3c(Br)nn(-c4ccc(-c5cnccn5)cc4)c3n2)C1 [(1R,3R)-3-[[3-bromo-1-(4-pyrazin-2-ylphenyl)pyrazolo[3,4-d]pyrimidin-6-yl]amino]-1-(2,2-difluoroethyl)-N-methyl-cyclopentanecarboxamide]
–	25 to 200 nM	CNC(=O)[C@]1(C)CC[C@@H](Nc2ncc3c(Br)nn(-c4cc(C)c(C#N)c(C)c4)c3n2)C1 [(1R,3R)-3-[[3-bromo-1-(4-cyano-3,5-dimethyl-phenyl)pyrazolo[3,4-d]pyrimidin-6-yl]amino]-N,1-dimethyl-cyclopentanecarboxamide]
–	25 to 200 nM	Cc1nnc(-c2ccc(-n3nc(Br)c4cnc(NC5CC(P(C)(C)=O)C5)nc43)cc2CCS(C)(=O)=O)s1 (stereo not shown) [3-bromo-N-(3-dimethylphosphorylcyclo-butyl)-1-[3-(2-methylsulfonylethyl)-4-(5-methyl-1,3,4-thiadiazol-2-yl)phenyl] pyrazolo[3,4-d]pyrimidin-6-amine]
–	25 to 200 nM	CNC(=O)CC1CC(Nc2ncc3c(Br)nn(-c4cc(CCN)c5ccccc5c4)c3n2)C1 (stereo not shown) [2-[3-[[1-[4-(2-aminoethyl)-2-naphthyl]-3-bromo-pyrazolo[3,4-d]pyrimidin-6-yl]amino]cyclobutyl]-N-methyl-acetamide; 2,2,2-trifluoroacetic acid]
< 25 nM	–	CNC(=O)[C@]1(CC(F)F)CC[C@@H](Nc2ncc3c(Br)nn(-c4ccc(-c5nnc(C)s5)cc4)c3n2)C1 [Example 39, (1R,3R)-3-((3-bromo-1-(4-(5-methyl-1,3,4-thiadiazol-2-yl)phenyl)-1H-pyrazolo[3,4-d]pyrimidin-6-yl)amino)-1-(2,2-difluoroethyl)-N-methylcyclopentane-1-carboxamide; 2,2,2-trifluoroacetic acid]
–	25 to 200 nM	CNC(=O)[C@]1(C)CC[C@@H](Nc2ncc3c(Br)nn(-c4cc(COC)c5ncccc5c4)c3n2)C1 [(1R,3R)-3-[[3-bromo-1-[8-(methoxymethyl)-6-quinolyl]pyrazolo[3,4-d]pyrimidin-6-yl]amino]-N,1-dimethyl-cyclopentane-carboxamide]
–	< 25 nM	CN1CN(C(=O)C2(C)CC[C@@H](Nc3ncc4c(Br)nn(-c5cc(F)c6ncccc6c5)c4n3)C2)CC1=O (stereo partly drawn) [1-[(3R)-3-[[3-bromo-1-(8-fluoro-6-quinolyl)pyrazolo[3,4-d]pyrimidin-6-yl]amino]-1-methyl-cyclopentanecarbonyl]-3-methyl-imidazolidin-4-one]
–	< 25 nM	CNC(=O)[C@]1(C)CC[C@@H](Nc2ncc3c(Br)nn(-c4ccc(-c5nnc(C)o5)cc4)c3n2)C1 [(1R,3R)-3-[[3-bromo-1-[4-(5-methyl-1,3,4-oxadiazol-2-yl)phenyl]pyrazolo[3,4-d]pyrimidin-6-yl]amino]-N,1-dimethyl-cyclo-pentanecarboxamide]
–	200 to 500 nM	COCCNC(=O)[C@@H]1CC[C@@H](Nc2ncc3c(Br)nn(-c4cc(C(F)(F)F)c5ncccc5c4)c3n2)C1 [(1R,3R)-3-((3-bromo-1-(8-(trifluoromethyl)quinolin-6-yl)-1H-pyrazolo[3,4-d]pyrimidin-6-yl)amino)-N-(2-methoxyethyl)cyclopentane-1-carboxamide]
